Measurements from publication PMC9820303, “^αN-Acetyl β-Endorphin Is an Endogenous Ligand of σ1Rs That Regulates Mu-Opioid Receptor Signaling by Exchanging G Proteins for σ2Rs in σ1R Oligomers” (International Journal of Molecular Sciences, 2022).

Columns and labels:
σ1R-NR1 C1 = biological target: T1, σ1R-NR1 C1 (Mus musculus, UniProt O55242); assay: In vitro σ1R-NR1 C1 association of recombinant proteins (Western blot); type: biochemical, murine; settings: increasing concentrations; 30 min RT; vs control without ligand
T1 construct: The coding region of the full-length murine σ1R (AF004927); GST (N, cleaved yes); made in house; host or cells: E. coli BL21 (KRX)
Method: (§1) Figure 7 Effect of β-End 1–31, ^αN-acetyl β-End 1–31 and their N-terminal derivatives on σ1R-σ2R, σ1R-NR1 C1 and σ1R-BiP associations. Amino acid sequence of β-End 1–31 showing derivatives 1–26 and 1–27. (A) HaloLink-attached σ2Rs were incubated for 30 min at RT in the presence of σ1Rs (100 nM) in 300 μL of 50 mM Tris-HCl (pH 7.4), 0.2% CHAPS, and 2.5 mM CaCl2. After removing the unbound σ1R proteins, the effects of increasing the peptide concentrations on σ1R-σ2R associations were studied. At the end of the incubation, protein complexes bound to HaloLink-σ2R were obtained by centrifugation, washed three times, solubilized in 2× Laemmli buffer containing β-mercaptoethanol, resolved by SDS-PAGE, and analyzed by Western blotting (for more details, see Section 4). This protocol was also used to assess the effect of ligands on (B) σ1R-NR1 C1 and (C) σ1R-BiP associations. Data were compared to that of the control, which was obtained in the absence of ligands. (A–C) Data are the mean ± SD, n = 3. (D) The β-End 1–31 structural models were predicted by Novafold (DNASTAR Lasergene protein v.17, Inc., Madison, WI, USA). Ribbon model: The 3D structure, charge distribution and hydrophobicity map of β-End 1–31 are shown. Positive charges are shown in red and negative charges in blue. Polar surfaces are shown in yellow, and nonpolar surfaces are shown in orange. Linear model: the opioid (1–5) and flexible region (8–11) sequences are shown in green and orange, respectively, and the amphiphilic helix (15–25) is shown in pink.
(§2) The recombinant σ1R (100 nM) was incubated either with Haloprotein (negative control) or together with the immobilized σ2R, NR1 C0-C1-C2 or BiP proteins in 300 µL of a buffer containing 50 mM Tris-HCl (pH 7.4) and 0.2% CHAPS in the presence of 2.5 mM CaCl2 for 30 min at RT. After removal of the unbound σ1R, the agarose-attached complexes were incubated for 30 min with rotation at RT in the presence of increasing concentrations of the ligands in a final reaction volume of 300 µL [50 mM Tris-HCl (pH 7.4), 2.5 mM CaCl2 and 0.2% CHAPS]. Ligands were usually dissolved in aqueous solutions; however, when an organic solvent such as DMSO was required to incorporate, e.g., pregnenolone sulfate, the solvent remained below 1% in the assay buffer. Agarose pellets containing the bound proteins were obtained by centrifugation, washed and resuspended thrice in the presence of 2.5 mM CaCl2, solubilized in 2× Laemmli buffer plus β-mercaptoethanol, and analyzed by Western blotting.
(§3) Because all the assays were performed with recombinant proteins, the immune signals provided a single band of the expected size, which was used for the subsequent densitometry analysis. Accordingly, no other regions of the blots provided information and were routinely excluded from the analysis.
Figure S8. Effect of the physiological and nonphysiological sequences of β-End 1-31 and classical σ1R ligands on BiP-σ1R, σ2R-σ1R and NR1 C1-σ1R associations . […]
D) Agarose-NR1 C1 loaded with […]
σ1Rs were incubated in the absence (control) and with nonphysiological derivatives of β-End 1-31. A-D) The σ1Rs that remained attached to the agarose complexes were evaluated by Western blotting. The […]
(1 picture or pasted object on this page, not shown here)
Figure S9. Effect of σ1R agonist/antagonist ligands on σ1R-NR1 C1 associations. Θ-Agarose-NR1 C1 was loaded with recombinant σ1Rs. After unbound σ1R proteins were removed, the complexes were incubated with (A) 1 nM β-End 1-31, (B) αN-acetyl β-End 1-31, (C-D) β-End 28-31 in the absence (black columns) and presence of (A) 10 nM or (B-D) increasing concentrations of competing σ1R ligands as indicated. The σ1Rs that remained attached to the Θ-σ2Rs were evaluated by Western blotting. The […]
Prog is progesterone; PregSulfate is pregnenolone sulfate; Nac is […]

σ1R-σ2R = σ1R-σ2R (Mus musculus, UniProt O55242); assay: In vitro σ1R-σ2R association of recombinant proteins (HaloLink-σ2R, Western blot); type: biochemical, murine; parameters: The coding region of the full-length murine σ1R (AF004927); GST (N, cleaved yes); made in house; host or cells: E. coli BL21 (KRX); settings: for EC50 to disrupt σ1R-σ2R interactions (range in words): 50 mM Tris-HCl pH 7.4, 0.2% CHAPS, 2.5 mM CaCl2, 30 min RT, n = 3; for effect on σ1R-σ2R association: increasing concentrations, 30 min RT, vs control without ligand; for effect on the disruption of σ1R-σ2R associations by β-End 1–31: fixed concentration of β-End 1–31 (or β-End 1–27), increasing competitor
Method: as §1, §2, §3
Figure S7. Effect of σ1R agonist/antagonist ligands on σ1R-σ2R heterodimers. (A-C) Agarose (Θ)- attached σ2Rs captured recombinant σ1Rs. After removing unbound σ1R proteins, the Θ-σ2R.σ1R complexes were incubated with a ﬁxed concentration of a selected L1 ligand (indicated in brackets) in the absence and presence of increasing concentrations of competing σ1R ligands as indicated. The σ1Rs that remained attached to the Θ-σ2Rs were evaluated by Western blotting. * Signiﬁcant differences with respect to the control group that was incubated without L1 ligands. ANOVA followed by the Holm-Sidak multiple comparisons test, p < 0.05. For details, see Methods and Figure 6A. Representative blots are […]
Figure S8. Effect of the physiological and nonphysiological sequences of β-End 1-31 and classical σ1R ligands on BiP-σ1R, σ2R-σ1R and NR1 C1-σ1R associations . Agarose-BiP was loaded with σ1Rs, and after the unbound σ1Rs were removed, the agarose-BiP-σ1R complexes were incubated in the absence (control) and presence of increasing concentrations of (A) β-End 1-31 C-terminal physiological derivatives and (B) classical σ1R ligands. C) Agarose-σ2R loaded with σ1Rs was incubated in the […]

T1 sequence (O55242 whole entry): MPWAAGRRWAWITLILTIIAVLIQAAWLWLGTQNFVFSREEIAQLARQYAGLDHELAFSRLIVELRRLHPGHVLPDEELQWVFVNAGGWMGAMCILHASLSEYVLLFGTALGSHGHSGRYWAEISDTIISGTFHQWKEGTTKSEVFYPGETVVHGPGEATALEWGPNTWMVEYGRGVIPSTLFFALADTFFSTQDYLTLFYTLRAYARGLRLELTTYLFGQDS
Sequence of σ1R-σ2R (O55242 whole entry): as above

Row | Compound | effect on σ1R-NR1 C1 association (σ1R-NR1 C1) | EC50 to disrupt σ1R-σ2R interactions (range in words) (σ1R-σ2R) | effect on σ1R-σ2R association (σ1R-σ2R) | affinity toward σ1R indicated by the potency to counteract the β-End 1–31 effect (σ1R-σ2R; competition with β-End 1–31 on σ1R-σ2R (Figure S7A)) | effect on the disruption of σ1R-σ2R associations by β-End 1–31 (σ1R-σ2R)
1 | β-End 1–27: β-End 1–31 derivative without 4 C-terminal residues (YGGFMTSEKSQTPLVTLFKNAIIKNAY; Beta-endorphin; UniProt P01189 237-263, looked up, fragment) | weak or no effects | low–medium nM range | – | – | –
2 | YKKGE [β-End 27–31, C-terminal pentapeptide of β-End 1–31] | increased σ1R-NR1 C1 | – | reduced σ1R-σ2R | – | –
3 | β-End 22–31: nonphysiological C-terminal sequence of β-End 1–31 (IIKNAYKKGE; Beta-endorphin; UniProt P01189 258-267, looked up, fragment) | persisted | – | promoted their association | – | –
4 | ^αN-acetyl β-End 1–31: β-End 1–31 acetylated at N terminal Y1, α position | separated σ1Rs from NR1 C1 subunits at pM concentrations | – | strengthened | fM range | antagonized
5 | COC(=O)[C@]1(c2ccc(C)cc2)C[C@@H]1CN1CCC(O)(c2ccccc2)CC1 [PPCC, (1R,2S/1S,2R)-2-[4-hydroxy-4-phenylpiperidin-1-yl)methyl]-1-(4-methylphenyl) cyclopropanecarboxylate, reference compound] | increased σ1R-NR1 C1 complexes | – | impaired σ1R associations with σ2R and BiP | – | –
6 | β-End 6–31: β-End 1–31 lacking the N-terminal met-enkephalin 1–5 sequence (TSEKSQTPLVTLFKNAIIKNAYKKGE; Beta-endorphin; UniProt P01189 242-267, looked up, fragment) | began to separate the complex | – | diminished σ1R-σ2R associations | – | –
7 | KKGE [β-End 28–31, C-terminal tetrapeptide of β-End 1–31] | reduced σ1R-NR1 C1 interactions | – | promoted σ1R-σ2R associations | – | counteracted
8 | Br.Br.CN(C)CCN(C)CCc1ccc(Cl)c(Cl)c1 [BD1047, N′-[2-(3,4-dichlorophenyl)ethyl]-N,N,N′-trimethylethane-1,2-diamine;dihydrobromide, reference compound] | did the opposite | – | did the opposite | – | –
9 | Cl.O=C(OCCN1CCOCC1)C1(c2ccccc2)CCCCC1 [PRE084, 2-(4-morpholinethyl)-1-phenylcyclohexanecarboxylate hydrochloride, reference compound] | increased σ1R-NR1 C1 complexes | – | impaired σ1R associations with σ2R and BiP | – | –
10 | Cc1cc(OCCN2CCOCC2)nn1-c1ccc2ccccc2c1 [S1RA] | did the opposite | – | did the opposite | – | –
11 | β-End 1–26: β-End 1–31 derivative without 5 C-terminal residues (YGGFMTSEKSQTPLVTLFKNAIIKNA; Beta-endorphin; UniProt P01189 237-262, looked up, fragment) | promoted σ1R-NR1 C1 associations at pM concentrations | low–medium nM range | – | – | –
